Experimental data from ChEMBL document CHEMBL3421576, “N-((1,3-Diphenyl-1H-pyrazol-4-yl)methyl)anilines: A novel class of anti-RSV agents” (Bioorg Med Chem Lett, 2015).

Experiments:
[1] = Cytotoxicity against bovine MDBK cells assessed as cell viability after 72 hrs by MTT method; format: cell-based, Bos taurus; details: cattle
[2] = tested on: Bovine viral diarrhea virus 1; experiment: Antiviral activity against BVDV infected in bovine MDBK cells assessed as protection against viral-induced cytopathogenecity after 3 to 4 days by MTT method; format: functional, organism-based
[3] = Selectivity index, ratio of CC50 for bovine MDBK cells to EC50 for BVDV infected in bovine MDBK cells
[4] = Cytotoxicity against hamster BHK21 cells assessed as cell viability after 72 hrs by MTT method; format: cell-based, Mesocricetus auratus, BHK-21
Yellow fever virus = experiment: Antiviral activity against YFV infected in hamster BHK21 cells assessed as protection against viral-induced cytopathogenecity after 3 to 4 days by MTT method; format: functional, organism-based, BHK-21
[5] = Cytotoxicity against African green monkey Vero 76 cells assessed as cell viability after 48 to 96 hrs by MTT method; format: cell-based; details: chlorocebus sabaeus
[6] = tested on: Respiratory syncytial virus; experiment: Antiviral activity against RSV infected in African green monkey Vero 76 cells after 5 days by plaque reduction assay; format: functional, organism-based
[7] = Selectivity index, ratio of CC50 for African green monkey Vero 76 cells to EC50 for RSV infected in African green monkey Vero 76 cells
[8] = Cytotoxicity against human MT4 cells assessed as cell viability after 96 hrs by MTT method; format: cell-based
[9] = tested on: Human immunodeficiency virus 1; experiment: Antiviral activity against HIV1 infected in human MT4 cells assessed as protection against viral-induced cytopathogenecity after 4 days by MTT method; format: functional, organism-based; details: Human immunodeficiency virus 1, MT4, 96 h
[10] = tested on: Mammalian orthoreovirus 1; experiment: Antiviral activity against Reovirus 1 infected in hamster BHK21 cells assessed as protection against viral-induced cytopathogenecity after 3 to 4 days by MTT method; format: functional, cell-based; details: Mammalian orthoreovirus 1, BHK-21
Coxsackievirus B5 = experiment: Antiviral activity against Coxsackievirus B5 infected in African green monkey Vero 76 cells after 3 days by plaque reduction assay; format: functional, organism-based
Enterovirus C = experiment: Antiviral activity against Poliovirus Sb-1 infected in African green monkey Vero 76 cells after 2 days by plaque reduction assay; format: functional, organism-based
Vaccinia virus = experiment: Antiviral activity against Vaccinia virus infected in African green monkey Vero 76 cells after 3 days by plaque reduction assay; format: functional, organism-based, Orthopoxvirus vaccinia
Human alphaherpesvirus 1 = experiment: Antiviral activity against HSV1 infected in African green monkey Vero 76 cells after 3 days by plaque reduction assay; format: functional, organism-based
[11] = tested on: Vesicular stomatitis virus; experiment: Antiviral activity against VSV infected in African green monkey Vero 76 cells after 2 days by plaque reduction assay; format: functional, organism-based
[12] = Selectivity index, ratio of CC50 for hamster BHK21 cells to EC50 for YFV infected in hamster BHK21 cells; set-up: species or system BHK-21
[13] = Bovine viral diarrhea virus isolates and strains, MDBK
[14] = human respiratory syncytial virus, Vero, 120 h
[15] = Enterovirus C, Sb-1, Vero, 48 h
[16] = Orthopoxvirus vaccinia, Vero, 72 h
[17] = Human alphaherpesvirus 1, Vero, 72 h
[18] = Vesicular stomatitis virus, Vero, 48 h

| Structure (SMILES) | CC50 at 72 h [1] [µM] | EC50 [2, 13] [µM] | CC50 at 72 h [4] [µM] | EC50 (Yellow fever virus; Yellow fever virus, BHK-21) [µM] | CC50 ([5]; Vero 76 cells) [µM] | EC50 [6, 14] [µM] | Ratio CC50/EC50 [7] | CC50 at 96 h [8] [µM] | EC50 [9] [µM] | EC50 [10] [µM] | EC50 (Coxsackievirus B5; Enterovirus B, Vero, 72 h) [µM] | EC50 (Enterovirus C; [15]) [µM] | EC50 (Vaccinia virus; [16]) [µM] | EC50 (Human alphaherpesvirus 1; [17]) [µM] | EC50 [11, 18] [µM] | also measured |
| --- | --- | --- | --- | --- | --- | --- | --- | --- | --- | --- | --- | --- | --- | --- | --- | --- |
| Cc1ccc(NCc2cn(-c3ccccc3)nc2-c2ccc(Cl)cc2)cc1 | > 100 | 55 | > 100 | > 100 | > 100 | 13 | >7.7 | > 100 | > 100 | > 100 | > 100 | > 100 | > 100 | > 100 | > 100 | Ratio CC50/EC50 [3]: >1.8 |
| Clc1ccc(NCc2cn(-c3ccccc3)nc2-c2ccc(Br)cc2)cc1 |  |  |  |  |  |  | >11.1 |  |  |  |  |  |  |  |  | EC50 ([2]; mdbk): ≥ 100 µM; EC50 (Yellow fever virus; bhk-21): 43 µM; Ratio CC50/EC50 [12]: >2.3; CC50 ([5]; vero 76): > 100 µM; EC50 ([6]; vero): 9 µM; EC50 (Coxsackievirus B5; vero): > 100 µM; EC50 (Enterovirus C; vero): > 100 µM; EC50 (Vaccinia virus; vero): > 100 µM; EC50 (Human alphaherpesvirus 1; vero): > 100 µM; EC50 ([11]; vero): > 100 µM |
| Brc1ccc(NCc2cn(-c3ccccc3)nc2-c2ccc(Br)cc2)cc1 | > 100 | > 100 | > 100 | 54 | 88 | 8 | 11 | > 100 | > 100 | > 100 | > 88 | > 88 | > 88 | > 88 | > 88 | Ratio CC50/EC50 [12]: >1.8 |
| Cc1ccc(NCc2cn(-c3ccccc3)nc2-c2ccc(Br)cc2)cc1 | > 100 | > 100 | > 100 | > 100 | > 100 | 11 | >9.1 | > 100 | > 100 | > 100 | > 100 | > 100 | > 100 | > 100 | > 100 |  |
| Cc1ccc(-c2nn(-c3ccccc3)cc2CNc2ccc(Cl)cc2)cc1 | > 100 | > 100 | > 100 | 34 | > 100 | 14 | >7.1 | > 100 | > 100 | > 100 | > 100 | > 100 | > 100 | > 100 | > 100 | Ratio CC50/EC50 [12]: >2.9 |
| Cc1ccc(-c2nn(-c3ccccc3)cc2CNc2ccc(Br)cc2)cc1 | > 100 | > 100 | > 100 | > 100 | 92 | 11 | 8.4 | > 100 | > 100 | > 100 | > 92 | > 92 | > 92 | > 92 | > 92 |  |
| Cc1ccc(NCc2cn(-c3ccccc3)nc2-c2ccc(C)cc2)cc1 | > 100 | > 100 | > 100 | > 100 | > 100 | 28 | >3.6 | > 100 | > 100 | > 100 | > 100 | > 100 | > 100 | > 100 | > 100 |  |
| Cc1ccc(-c2nn(-c3ccccc3)cc2CNc2ccccc2)cc1 | > 100 | > 100 | > 100 | 38 | 52 | 23 | 2.3 | > 100 | > 100 | > 100 | > 52 | > 52 | > 52 | > 52 | > 52 | Ratio CC50/EC50 [12]: >2.6 |
| Brc1ccc(-c2nn(-c3ccccc3)cc2CNc2ccccc2)cc1 | > 100 | > 100 | > 100 | 20 | 52 | 9 | 5.8 | > 100 | > 100 | > 100 | > 52 | > 52 | > 52 | > 52 | > 52 | Ratio CC50/EC50 [12]: >5 |
| FC(F)(F)c1ccc(-c2nn(-c3ccccc3)cc2CNc2ccc(Br)cc2)cc1 | 64 | > 64 | 28 | > 28 | 17 | 5 | 3.4 | > 100 | > 100 | > 28 | > 17 | > 17 | > 17 | > 17 | > 17 |  |
| FC(F)(F)c1ccc(-c2nn(-c3ccccc3)cc2CNc2ccc(Cl)cc2)cc1 | 44 | > 44 | 31 | > 31 | 10 | > 10 |  | > 100 | > 100 | > 31 | > 80 | > 80 | > 80 | > 80 | > 80 |  |
| FC(F)(F)c1ccc(NCc2cn(-c3ccccc3)nc2-c2ccccc2)cc1 | 34 | > 34 | 37 | > 37 | 17 | > 17 |  | > 100 | > 100 | > 37 | > 75 | > 75 | > 75 | > 75 | > 75 |  |
| FC(F)(F)c1ccc(NCc2cn(-c3ccccc3)nc2-c2ccc(Cl)cc2)cc1 | 31 | > 31 | 17 | > 17 | 18 | > 18 |  | > 100 | > 100 | > 17 | > 18 | > 18 | > 18 | > 18 | > 18 |  |
| FC(F)(F)c1ccc(NCc2cn(-c3ccccc3)nc2-c2ccc(C(F)(F)F)cc2)cc1 | 26 | > 26 | 27 | > 37 | 26 | > 26 |  | > 100 | > 100 | > 27 | > 26 | > 26 | > 26 | > 26 | > 26 |  |
| Cc1ccc(-c2nn(-c3ccccc3)cc2CNc2ccc(C(F)(F)F)cc2)cc1 | > 100 | > 100 | 88 | > 100 | 45 | > 45 |  | > 100 | > 100 | > 88 | > 45 | > 45 | > 45 | > 45 | > 45 |  |
| FC(F)(F)c1ccc(NCc2cn(-c3ccccc3)nc2-c2ccc(Br)cc2)cc1 | 46 | > 46 | 20 | > 28 | 28 | > 28 |  | > 100 | > 100 | > 20 | > 28 | > 28 | > 28 | > 28 | > 28 |  |
| C[C@@]1(O)[C@H](O)[C@@H](CO)O[C@H]1n1ccc(N)nc1=O |  |  | > 100 |  |  |  |  |  |  | 6 |  |  |  |  |  |  |
| O=c1cnn([C@@H]2O[C@H](CO)[C@@H](O)[C@H]2O)c(=O)[nH]1 [6-AZAURIDINE] |  |  | > 100 | 46 | 10 | 0.9 | 11.1 |  |  |  |  |  |  |  |  | Ratio CC50/EC50 [12]: >2.2 |
| Nc1nc2c(ncn2COCCO)c(=O)[nH]1 [ACYCLOVIR] |  |  |  |  | > 100 |  |  |  |  |  |  |  |  | 2.8 |  |  |
| COc1c(C)c2c(c(O)c1C/C=C(\C)CCC(=O)O)C(=O)OC2 [MYCOPHENOLIC ACID] |  |  |  |  | 19 |  |  |  |  |  |  |  | 1.5 |  |  |  |
| Cc1cc(CCCOc2c(C)cc(-c3noc(C(F)(F)F)n3)cc2C)on1 [PLECONARIL] |  |  |  |  | 80 |  |  |  |  |  | 0.005 | 2.2 |  |  |  |  |
| NC(=O)c1ncn([C@@H]2O[C@H](CO)[C@@H](O)[C@H]2O)n1 [RIBAVIRIN] | 57 | 19 |  |  | > 100 | 35 | >2.8 |  |  |  |  |  |  |  |  | Ratio CC50/EC50 [3]: 3 |
